From paper PMC8710297, “Identification of potent SENP1 inhibitors that inactivate SENP1/JAK2/STAT signaling pathway and overcome platinum drug resistance in ovarian cancer” (Clinical and Translational Medicine, 2021)

Target: T1, SENP1 (Homo sapiens, UniProt Q9P0U3)
T1 sequence (Q9P0U3 1-644): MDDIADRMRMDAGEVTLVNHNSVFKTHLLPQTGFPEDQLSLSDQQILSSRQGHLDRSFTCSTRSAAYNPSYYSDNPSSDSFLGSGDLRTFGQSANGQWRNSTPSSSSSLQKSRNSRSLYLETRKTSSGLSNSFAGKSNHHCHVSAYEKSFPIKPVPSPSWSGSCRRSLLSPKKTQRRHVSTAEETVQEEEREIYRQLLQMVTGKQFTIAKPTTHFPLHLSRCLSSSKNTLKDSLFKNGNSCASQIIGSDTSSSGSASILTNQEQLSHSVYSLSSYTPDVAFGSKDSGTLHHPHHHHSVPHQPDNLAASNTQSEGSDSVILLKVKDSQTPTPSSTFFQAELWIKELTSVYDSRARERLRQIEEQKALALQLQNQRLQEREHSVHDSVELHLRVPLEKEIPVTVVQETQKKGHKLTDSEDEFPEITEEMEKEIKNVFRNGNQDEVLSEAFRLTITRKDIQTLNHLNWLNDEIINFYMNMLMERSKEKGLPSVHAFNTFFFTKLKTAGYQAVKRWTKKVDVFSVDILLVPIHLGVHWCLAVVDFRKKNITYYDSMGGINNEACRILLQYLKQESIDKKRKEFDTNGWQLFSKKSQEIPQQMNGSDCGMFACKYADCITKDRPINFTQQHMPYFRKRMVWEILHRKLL
Experiment: Cellular thermal shift assay
Type: cell-based
Design: endogenous in cells; host or cells: IGROV1 CR cells
Conditions: IGROV1 CR cells, 4 h, higher temperatures
Description: FIGURE 2 UA directly interacts with Sentrin‐specific protease 1 (SENP1). (A) Cellular thermal shift assay to examine the interaction of UA with SENP1. IGROV1 CR cells pretreated with MG132 (10 μM, 1 h) were incubated with DMSO or UA for 4 h before being shifted to indicated temperatures. SENP1 stability was analyzed by using Western blot against SENP1 antibody. Right panel, quantification of non‐denatured SENP1 fraction shown in the left panel. (B) Cell‐free thermal shift assay to examine interactions of UA with SENP1. Purified SENP1 proteins were incubated with DMSO or UA for 4 h before being shifted to the indicated temperatures. SENP1 stability was analyzed by using Western blot against SENP1 antibody. Right panel, quantification of non‐denatured SENP1 fraction shown in the left panel. […] Stability of SENP1(C603A) was analyzed by using Western blot against SENP1 antibody. […] Left; Ultra‐high performance liquid‐chromatography‐MS/MS analyses of associated UA in indicated samples, right; quantification of data shown in left (the binding affinity of UA with SENP1‐C603A was normalized as 1). […]
FIGURE 3 Identification of UAMMC9 from UA derivatives. […] Stability of SENP1(C603A) was analyzed by using Western blot against SENP1 antibody. […]
The qu anti ficatio n of immunohistochemical sta in ing wa s scored blindly at lea st by two […]

thermal stabilization of SENP1 in cells	SMILES
stabilized	C[C@H]1[C@H](C)CC[C@]2(C(=O)O)CC[C@]3(C)C(=CC[C@@H]4[C@@]5(C)CC[C@H](O)C(C)(C)[C@@H]5CC[C@]43C)[C@H]12 [UA, ursolic acid, reference compound]
directly interacted with SENP1	C[C@H]1[C@H](C)CC[C@]2(C(=O)NCC(=O)N(C)CCO)CC[C@]3(C)C(=CC[C@@H]4[C@@]5(C)CC[C@H](O)C(C)(C)[C@@H]5CC[C@]43C)[C@H]12 [UAMMC9]
